Measured values as given in US8906888B2, “Low-calcemic 16,23-diene 25-oxime analogs of 1α,25-dihydroxy vitamin D3” (Cytochroma Inc., priority 2005, dated 2014).
pIC50: −log10 of the molar value.

How the values were obtained:
[1] = target: T1, VDR (Homo sapiens, UniProt P11473); experiment: VDR binding assay ([3H]-1,25(OH)2D3 displacement); details: human recombinant VDR; read-out: B50 (VDR binding, displacement of 50 percent [3H]-1,25(OH)2D3)
T1 construct: purchased Biomol
T1 sequence (P11473 1-427): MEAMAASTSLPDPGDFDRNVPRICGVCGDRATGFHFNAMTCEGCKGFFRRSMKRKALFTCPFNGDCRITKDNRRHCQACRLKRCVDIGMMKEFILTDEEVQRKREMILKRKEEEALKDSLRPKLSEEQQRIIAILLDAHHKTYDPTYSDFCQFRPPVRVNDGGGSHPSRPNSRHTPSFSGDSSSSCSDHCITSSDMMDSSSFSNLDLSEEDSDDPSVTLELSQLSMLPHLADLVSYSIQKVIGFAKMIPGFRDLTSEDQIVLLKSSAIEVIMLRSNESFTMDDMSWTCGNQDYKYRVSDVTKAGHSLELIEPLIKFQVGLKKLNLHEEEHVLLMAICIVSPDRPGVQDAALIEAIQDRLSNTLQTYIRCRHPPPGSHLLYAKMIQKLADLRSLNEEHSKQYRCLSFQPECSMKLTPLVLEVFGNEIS
Method: • 1. VDR 9.4 μmol/μl (human, recombinant, Biomol). • 2. [^3H]-1,25(OH)2D3 in ethanol • 3. 1,25(OH)2D3 in ethanol • 4. TEK300 • Tris-HCl 50 mM • EDTA 1.5 mM • KCl 300 mM • Adjusted pH to 7.4 (25° C.) • 5. TEDK300 • TEK300 • DTT (dithiothreitol) 10 mM (MW 154.24) • 6. Tris buffer • 22.50 g Tris-HCI • 500 ml H2O • 13.25 g Tris-base • 500 ml H2O • Kept in 4° C. • 7. Dextran-T70 (Mol 70,000) Pharmacia • 8. Charcoal (carbon decolorizing neutral, norit) Fisher Scientific • 9. Gelatin (G-2625 Sigma) (ii) Reagent Preparation: 1. Charcoal Dextran Solution
(1) Tris Buffer • Mixed equal amount of Tris-HCl and Tris-base.
(2) Norit decolorizing neutral charcoal 2.0 g • Tris buffer 150 mL • Stirred
(3) Dextran T-70 0.2 g • Tris buffer 50 ml.
(4) Slowly dripped the suspended dextran into charcoal solution with stirring. • Kept in refrigerator overnight. • Thirty minutes before use, stored on ice with continuous mixing. 2. […]
• Pipetted 100 μL of the upper, aqueous phase to a 24 well scintillation counting plate and added 600 μL scintillation fluid per well, covered and mixed well. Counted the plate using a scintillation counter for 5 min/sample. (iv) Calculations: • The amount of 1,25(OH)2D3 to displace 50 percent [^3H]-1,25(OH)2D3 from VDR was calculated as B50 for 1,25(OH)2D3. The VDR binding of other compounds was calculated as B50 relative to a value of 1 for 1,25(OH)2D3. • Serial Dilution of 1,25(OH)D3

[2] = tested on: OVCAR-3 cells; experiment: [3H]-Thymidine proliferation assay with OVCAR-3 cells; assay type: cell-based; details: ovarian cancer cells, 6 days, 3H-thymidine incorporation
Method: 1. Preparation of Suspension • When OVCAR-3 cells were ˜50% confluent, aspirated media. Washed cells with 1×PBS. Trypsinized with trypsin-EDTA, collected cells from the tissue culture flask, centrifuged (200×g, 5 min) and resuspended in media.
2. Cell Plating. • Counted the cells and adjusted the cell density to 11.4×10^3 to provide 2000 cells in 175 μl (for 1 well). Distributed cell suspension into a 96 well plates at 175 μl (2000 cells) per well. Incubated plate for 24 h at 37° C. in a humidified atmosphere plus 5% CO2. • Substrate addition. • Added 25 μl of compound (final concentration 10^−7 M, 5×10^−8 M 10^−8 M, 5×10^−9 M, 10^−9 M, 10^−10M or 0 M) into each designated well. Incubated plates for 6 days without changing media and drugs at 37° C. in a humidified atmosphere plus 5% CO2.
3. [^3H]-Thymidine incorporation • Added ^3H-thymidine at 0.02 μCi per well and incubated at 37° C. in a humidified atmosphere plus 5% CO2 for 6 h.
4. Plate Harvesting. • Aspirated all media and washed cells with 1×PBS. Trypsinized cells for 30 min at 37° C. in a humidified atmosphere plus 5% CO2. Harvested cells onto a 96 well filter plate (Millipore) using a Tomtec Cell Harvestor, according to manufacturers instructions.
5. Scintillation Counting. • Added 25 μl of scintillation fluid per well. Counted the plate using a scintillation counter. Results: Compounds (20R)-I(a), (20R)-I(c) and (20R)-I(e) all inhibited the proliferation of OVCAR-3 cells.

- pIC50 [1]: 7.22
SMILES: C=C1/C(=C\C=C2/CCC[C@]3(C)C([C@H](C)C/C=C/C(=NOC)C(C)(C)C)=CC[C@@H]23)C[C@@H](O)C[C@@H]1O [(20R)-I(e)]
- Inhibition of OVCAR-3 cell proliferation [2]: inhibited
